The values below come from article doi:10.1101/2025.11.04.686469, “Discovery of Host-Directed Small Molecules with Broad Anti-Leishmanial Efficacy” (bioRxiv, 2025).

In general, IC50 refers to the concentration at which inhibition is half-maximal.

SMILES strings stand for the structures.

The test system of data set [1] is THP-1 macrophages. Put plainly: Effect of compounds on host cell viability (MTT). As to conditions: read-out: 24h LC50; THP1 macrophages, 24-hour incubation, MTT assay (Supplemental Table 2). In kind it is cell-based. As to the method:
The cells were cultured at 37C, 5% CO2 in RPMI medium (ATCC) supplemented with 10% FBS, 1% Penicillin/Streptomycin and 0.05 mM of β-mercaptoethanol. Cells were used in experiments up to passage 10.
Effect of the compounds on THP-1 cell viability measured using thiazolyl blue tetrazolium bromide which measures cell metabolic activity (MTT). THP-1 cells were seeded in a 96 well plate (25,000 cells/well) overnight then differentiated with 150 nM phorbol 12-myristate 13-acetate (PMA) over 72 hours. Macrophages were then treated with compounds resuspended in RPMI media (1- 50 μM) for 24 hours. Media was replaced with thiazolyl blue tetrazolium bromide solubilized in RPMI media (0.5 mg/mL) and incubated at 37°C for 2 hours. The reduced formazan crystals were solubilized with isopropyl alcohol and the absorbance of the resulting solution was measured at 560 nm with a background subtraction at 670 nm. […] This process was repeated with a 72-hr incubation and extended concentration range (1 - 300 μM) for select compounds.
(In general: Tetrazolium dyes change colour on reduction, which living cells bring about.)

The test system of data set [2] is intracellular L. donovani amastigotes. Put plainly: Luminescent-based evaluation of intracellular anti-leishmanial activity in THP-1 macrophages. Type of data set: cell-based, Leishmania donovani. The following applies: intracellular Leishmania donovani in THP1 macrophages, luminescence assay (Supplemental Table 2); read-out: Lum IC50. Here is the method: Luminescent strains, L. donovani LV82 expressing firefly luciferase (a kind gift from Dr. Abhay Satoskar, Ohio State University) and L. mexicana (NR-51210, ATCC) expressing renilla luciferase were used to evaluate the effect of the compounds in intracellular and extracellular conditions. Wild-type L. donovani LV82 (ATCC) were used for Giemsa staining based experiments. All parasites were cultured at 25°C and 5% CO2 in M199 media (Corning) supplemented with 10% FBS, 1% penicillin/streptomycin, and hemin (0.01 mg/mL), and used in experiments up to passage 15.
THP-1 cells were seeded in a 96 well plate (25,000 cells/well) overnight then differentiated with 150 nM phorbol 12-myristate 13-acetate (PMA) over 72 hours (Supplemental Figure 1). […] Briefly, promastigotes of a known cell density were resuspended in RPMI media (with 10% FBS, 1% P/S and 0.05 mM β-mercaptoethanol) and incubated with adhered THP-1 cells over 18 hours. After infection, cells were washed three times with fresh media to remove extracellular promastigotes.
Infected macrophages were then treated with compounds solubilized in DMSO ranging from 0.1-10 μM in concentrations. After 72 hours of treatment, the viability of the amastigotes within macrophages was determined using Promega firefly luminescence assay (Cat E1500) or Pierce Renilla luciferase assay (Cat 16166) for L. donovani and L. mexicana strains, respectively. Briefly, media was removed, and cells were lysed with the assay lysis buffer. The luciferase substrate was then incubated with the lysed cells for 10 min at room temperature and luminescence of live Leishmania was measured in a white opaque 96 well plate using a Biotek plate reader.

In the case of `CCCNC1CN(c2ccc(-n3nc(C(F)(F)F)cc3-c3ccc(-c4ccc(C(F)(F)F)cc4)cc3)cc2)C1` [Compound 54], the CC50 in data set [1] came to 9.9 µM. Also, the IC50 in data set [2] came out at 2.4 µM.

In the case of `FC(F)(F)c1ccc(-c2ccc(-c3cc(C(F)(F)F)nn3-c3ccc(N4CC(NC5CCCC5)C4)cc3)cc2)cc1` [Compound 55], the CC50 in data set [1] amounted to 29.7 µM. Also, the IC50 in data set [2] was found to be 8.5 µM.

Turning to `FC(F)(F)c1ccc(-c2ccc(-c3cc(C(F)(F)F)nn3-c3ccc(NC4CCN(C5CCCCC5)C4)cc3)cc2)cc1` (stereo not shown) [Compound 58], the CC50 in data set [1] came to 2.6 µM. In addition, the IC50 in data set [2] was found to be 2.2 µM.

For `NC(Cc1ccccc1)C(=O)N1CCC(Nc2ccc(-n3nc(C(F)(F)F)cc3-c3ccc(-c4ccc(C(F)(F)F)cc4)cc3)cc2)C1` (stereo not shown) [Compound 61], in data set [1], the CC50 came to 6.1 µM. In data set [2], the IC50 came out at 2.3 µM.

As to `FC(F)(F)c1cc(-c2ccc(-c3ccccc3)cc2)n(-c2ccc(NCCc3ccccc3)cc2)n1` [Compound 62], the CC50 in data set [1] is above 50 µM. Further, in data set [2], the IC50 was above 10 µM.

As for `CCCCCC(=O)NC1CCN(c2ccc(-n3nc(C(F)(F)F)cc3-c3ccc(-c4ccc(C(F)(F)F)cc4)cc3)cc2)C1` (stereo not shown) [Compound 63], the CC50 in data set [1] is above 50 µM. For the same compound, in data set [2], the concentration for half-maximal inhibition (IC50) was above 10 µM.

For the compound `CCCCCCCCNc1ccc(-n2nc(C(F)(F)F)cc2-c2ccc(-c3ccc(C(F)(F)F)cc3)cc2)cc1` [Compound 64], the CC50 in data set [1] is above 50 µM. In addition, in data set [2], the IC50 is above 10 µM.

With `FC(F)(F)c1ccc(-c2ccc(-c3cc(C(F)(F)F)nn3-c3ccc(NC4CCNCC4)cc3)cc2)cc1` [Compound 65], the CC50 in data set [1] is 4 µM. The IC50 in data set [2] was 2.3 µM.

With `FC(F)(F)c1ccc(-c2ccc(-c3cc(C(F)(F)F)nn3-c3ccc(NC4CC(Cc5ccc(Cl)cc5)C4)cc3)cc2)cc1` (stereo not shown) [Compound 66], the CC50 in data set [1] is above 50 µM. Also, the IC50 in data set [2] is above 10 µM.

Regarding `FC(F)(F)c1ccc(-c2ccc(-c3cc(C(F)(F)F)nn3-c3ccc(NCCCCl)cc3)cc2)cc1` [Compound 67], the CC50 in data set [1] is above 50 µM. In addition, the IC50 in data set [2] is above 10 µM.

With `FC(F)(F)c1ccc(-c2ccc(-c3cc(C(F)(F)F)nn3-c3ccc(NCCCCOc4ccccc4)cc3)cc2)cc1` [Compound 68], in data set [1], the CC50 worked out at 34.7 µM. Moreover, the IC50 in data set [2] is above 10 µM.

As for `FC(F)(F)c1ccc(-c2ccc(-c3cc(C(F)(F)F)nn3-c3ccc(N4CCC(NC5CCCCCC5)C4)cc3)cc2)cc1` (stereo not shown) [Compound 69], in data set [1], the CC50 came out at 12.4 µM. The IC50 in data set [2] was found to be 5.5 µM.

Regarding `COc1ccc(C(=O)N2CCC(Nc3ccc(-n4nc(C(F)(F)F)cc4-c4ccc(-c5ccc(C(F)(F)F)cc5)cc4)cc3)C2)cc1OC` (stereo not shown) [Compound 70], the CC50 in data set [1] is above 50 µM. Besides, the IC50 in data set [2] is above 10 µM.

Regarding `O=C(C1CCCCC1)N1CC(Nc2ccc(-n3nc(C(F)(F)F)cc3-c3ccc(-c4ccc(C(F)(F)F)cc4)cc3)cc2)C1` [Compound 71], the CC50 in data set [1] was 8.4 µM. Moreover, the IC50 in data set [2] was above 10 µM.

On to `CC(C)(C)OC(=O)NC1CCN(c2ccc(-n3nc(C(F)(F)F)cc3-c3ccc(-c4ccc(C(F)(F)F)cc4)cc3)cc2)CC1` [Compound 72], for which the CC50 in data set [1] is above 50 µM. The IC50 in data set [2] was above 10 µM.

Turning to `NC1CCN(c2ccc(-n3nc(C(F)(F)F)cc3-c3ccc(-c4ccc(C(F)(F)F)cc4)cc3)cc2)CC1` [Compound 73], the CC50 in data set [1] is 4.8 µM. Further, the IC50 in data set [2] was determined as 2.7 µM.

Take `FC(F)(F)c1ccc(-c2ccc(-c3nc(C(F)(F)F)cn3-c3ccc(N4CCNCC4)cc3)cc2)cc1` [Compound 74]: the CC50 in data set [1] came to 6.5 µM. In addition, the half-maximal inhibitory concentration (IC50) in data set [2] is 2.8 µM.

`FC(F)(F)c1ccc(-c2ccc(-c3nc(C(F)(F)F)c[nH]3)cc2)cc1` [Compound 75]: the CC50 in data set [1] was found to be 48.8 µM. For the same compound, in data set [2], the IC50 was above 10 µM.

Regarding `CC(C)(C)OC(=O)NCC(=O)Nc1ccc(-n2cc(C(F)(F)F)nc2-c2ccc(-c3ccc(C(F)(F)F)cc3)cc2)cc1` [Compound 77], the CC50 in data set [1] was above 50 µM. The IC50 in data set [2] was above 10 µM.

On to `CC(C)(C)OC(=O)NC(Cc1ccccc1)C(=O)Nc1ccc(-n2cc(C(F)(F)F)nc2-c2ccc(-c3ccc(C(F)(F)F)cc3)cc2)cc1` (stereo not shown) [Compound 78], for which the CC50 in data set [1] was above 50 µM. The IC50 in data set [2] is above 10 µM.

Turning to `NCC(=O)Nc1ccc(-n2cc(C(F)(F)F)nc2-c2ccc(-c3ccc(C(F)(F)F)cc3)cc2)cc1` [Compound 79], the CC50 in data set [1] amounted to 6.3 µM. Further, the half-inhibitory concentration (IC50) in data set [2] is 7.1 µM.

For the compound `NC(Cc1ccccc1)C(=O)Nc1ccc(-n2cc(C(F)(F)F)nc2-c2ccc(-c3ccc(C(F)(F)F)cc3)cc2)cc1` (stereo not shown) [Compound 80], the CC50 in data set [1] was 8.2 µM. For the same compound, in data set [2], the IC50 worked out at 3 µM.

Regarding `FC(F)(F)c1cn(-c2ccc(Br)cc2)c(-c2ccc(-c3ccccc3)cc2)n1` [Compound 81], the CC50 in data set [1] is above 50 µM. In addition, the IC50 in data set [2] is above 10 µM.

On to `CC(C)(C)OC(=O)NC1CCN(c2ccc(-n3cc(C(F)(F)F)nc3-c3ccc(-c4ccccc4)cc3)cc2)C1` (stereo not shown) [Compound 82], for which, in data set [1], the CC50 is above 50 µM. In addition, the IC50 in data set [2] is above 10 µM.

As for `NC1CCN(c2ccc(-n3ccnc3-c3ccc(-c4ccccc4)cc3)cc2)C1` (stereo not shown) [Compound 83], the CC50 in data set [1] worked out at 6.2 µM. Moreover, the IC50 in data set [2] came to 1.8 µM.

For the compound `FC(F)(F)c1cn(-c2ccc(N3CCC(NCc4ccccc4)C3)cc2)c(-c2ccc(-c3ccccc3)cc2)n1` (stereo not shown) [Compound 84], in data set [1], the CC50 is above 50 µM. The IC50 in data set [2] amounted to 6.5 µM.

Consider `O=C(Nc1ccc(-n2cc(C(F)(F)F)nc2-c2ccc(-c3ccccc3)cc2)cc1)C1CCCN1Cc1ccccc1` (stereo not shown) [Compound 85], for which the CC50 in data set [1] is above 50 µM. Moreover, in data set [2], the IC50 was above 10 µM.

On to `FC(F)(F)c1cn(-c2ccc(NCc3ccccc3)cc2)c(-c2ccc(-c3ccccc3)cc2)n1` [Compound 87], for which the CC50 in data set [1] was above 50 µM. The IC50 in data set [2] was 6.7 µM.

For the compound `O=C(Nc1ccc(-n2cc(C(F)(F)F)nc2-c2ccc(-c3ccccc3)cc2)cc1)c1ccccc1` [Compound 88], in data set [1], the CC50 was above 50 µM. The IC50 in data set [2] was above 10 µM.

Take `FC(F)(F)c1ccc(-c2ccc(-c3cc(C(F)(F)F)nn3-c3ccc(N4CCC(NCc5ccccc5)CC4)cc3)cc2)cc1` [Compound 89]: in data set [1], the CC50 came to 8 µM. In addition, the IC50 in data set [2] turned out to be 4 µM.

As to `FC(F)(F)c1ccc(-c2ccc(-c3cc(C(F)(F)F)nn3-c3ccc(NC4CCN(Cc5ccc(Cl)c(Cl)c5)CC4)cc3)cc2)cc1` [Compound 90], in data set [1], the CC50 was above 50 µM. In addition, in data set [2], the IC50 was above 10 µM.

Take `C#CCCCC(=O)NC1CCN(c2ccc(-n3nc(C(F)(F)F)cc3-c3ccc(-c4ccc(C(F)(F)F)cc4)cc3)cc2)CC1` [Compound 92]: the CC50 in data set [1] was determined as 14.7 µM. The IC50 in data set [2] was above 10 µM.

Turning to `FC(F)(F)C#Cc1ccc(-c2cc(C(F)(F)F)nn2-c2ccc(N3CCNCC3)cc2)cc1` [Compound 93], in data set [1], the CC50 was 40 µM. Further, the IC50 in data set [2] was above 10 µM.

Turning to `CC(C)C#Cc1ccc(-c2cc(C(F)(F)F)nn2-c2ccc([N+](=O)[O-])cc2)cc1` [Compound 94], the CC50 in data set [1] came to 29 µM. Further, the IC50 in data set [2] is above 10 µM.

Regarding `CC(C)C#Cc1ccc(-c2cc(C(F)(F)F)nn2-c2ccc(N)cc2)cc1` [Compound 95], the CC50 in data set [1] is above 50 µM. Moreover, the IC50 in data set [2] is above 10 µM.

In the case of `CC(C)C#Cc1ccc(-c2cc(C(F)(F)F)nn2-c2ccc(Br)cc2)cc1` [Compound 96], the CC50 in data set [1] is 37.5 µM. In addition, in data set [2], the IC50 is above 10 µM.

As to `CC(C)C#Cc1ccc(-c2cc(C(F)(F)F)nn2-c2ccc(N3CCC(NC(=O)OC(C)(C)C)C3)cc2)cc1` (stereo not shown) [Compound 97], the CC50 in data set [1] was above 50 µM. The IC50 in data set [2] was above 10 µM.

For the compound `CC(C)C#Cc1ccc(-c2cc(C(F)(F)F)nn2-c2ccc(N3CCC(N)C3)cc2)cc1` (stereo not shown) [Compound 98], the CC50 in data set [1] was determined as 19.5 µM. Further, the IC50 in data set [2] was above 10 µM.

Consider `CC(C)C#Cc1ccc(-c2cc(C(F)(F)F)nn2-c2ccc(N3CCC(NCc4ccccc4)C3)cc2)cc1` (stereo not shown) [Compound 99], for which the CC50 in data set [1] stood at 29.2 µM. Also, in data set [2], the IC50 was above 10 µM.

On to `CC(C)C#Cc1ccc(-c2cc(C(F)(F)F)nn2-c2ccc(N3CCC(NCc4cccc(F)c4)C3)cc2)cc1` (stereo not shown) [Compound 100], for which, in data set [1], the CC50 was above 50 µM. Besides, the IC50 in data set [2] was above 10 µM.

For `O=[N+]([O-])c1ccc(-n2nc(C(F)(F)F)cc2-c2ccc(-c3ccc(S(F)(F)(F)(F)F)cc3)cc2)cc1` [Compound 103], the CC50 in data set [1] is above 50 µM. The IC50 in data set [2] is above 10 µM.
